Measured values taken from ChEMBL document CHEMBL1156679, “Inhibition of immune complex-mediated neutrophil oxidative metabolism: a pharmacophore model for 3-phenylcoumarin derivatives using GRIND-based 3D-QSAR and 2D-QSAR procedures” (Eur J Med Chem, 2008).

Assays:
Neutrophil [1] = experiment: Inhibition of immune complex-stimulated neutrophil oxidative metabolism in New Zealand white rabbit neutrophils assessed as ROS generation at 50 uM after 30 mins by lucigenin enhanced chemiluminescence assay; format: functional; conditions: Oryctolagus cuniculus, 0.5 h
Neutrophil [2] = experiment: Inhibition of immune complex-stimulated neutrophil oxidative metabolism in New Zealand white rabbit neutrophils assessed as ROS generation at 50 uM after 30 mins by luminol enhanced chemiluminescence assay; format: functional; conditions: Oryctolagus cuniculus, 0.5 h
Neutrophil [3] = experiment: Inhibition of immune complex-stimulated neutrophil oxidative metabolism in New Zealand white rabbit neutrophils assessed as ROS generation after 30 mins by lucigenin enhanced chemiluminescence assay; format: functional, cell-based; conditions: Oryctolagus cuniculus, 0.5 h
Neutrophil [4] = experiment: Inhibition of immune complex-stimulated neutrophil oxidative metabolism in New Zealand white rabbit neutrophils assessed as ROS generation after 30 mins by luminol enhanced chemiluminescence assay; format: functional, cell-based; conditions: Oryctolagus cuniculus, 0.5 h
[5] = Cytotoxicity against New Zealand white rabbit neutrophils assessed as cell viability at 50 uM after 30 mins by trypan blue exclusion test; format: cell-based, Oryctolagus cuniculus, Neutrophil; conditions: read-out: Activity
[6] = Cytotoxicity against New Zealand white rabbit neutrophils assessed as LDH release at 50 uM after 30 mins by spectrophotometry; format: cell-based, Oryctolagus cuniculus; conditions: neutrophil, 0.5 h

Row | SMILES | inhibition at 50 µM (Neutrophil [1]) [%] | inhibition at 50 µM (Neutrophil [2]) [%] | IC50 (Neutrophil [3]; read-out: IC50) [µM] | IC50 (Neutrophil [3]; read-out: pIC50 (converted)) [µM] | IC50 (Neutrophil [4]; read-out: IC50) [µM] | IC50 (Neutrophil [4]; read-out: pIC50 (converted)) [µM] | viability at 0.5 h, 50 µM [5] [%] | Activity [6] [%]
1 | O=c1oc2ccc(O)cc2cc1-c1ccccc1O | 99.9 | 99 | 2.5 | 2.51 | 2.8 | 2.82 | 94.8 | 9.8
2 | O=c1oc2ccc(O)cc2cc1-c1ccc(O)c(O)c1 | 98.7 | 99.2 | 4.4 | 4.47 | 4.9 | 4.9 | 92.8 | 11.9
3 | O=c1oc2cc(O)c(O)cc2cc1-c1ccc(O)c(O)c1 | 94.9 | 92.4 | 5.2 | 5.25 | 13.4 | 13.5 | 92 | 10.5
4 | O=c1oc2cc(O)c(O)cc2cc1-c1ccc2c(c1)OCO2 | 99.6 | 99.8 | 0.7 | 0.724 | 0.7 | – | 93.2 | 15.3
5 | COC(=O)Oc1cccc(-c2cc3cc(OC(=O)OC)ccc3oc2=O)c1 | 82.1 | 66.3 | 6.9 | 6.92 | 21.7 | 21.9 | 94 | 9.3
6 | O=c1oc2ccc(O)cc2cc1-c1ccccc1 | 83.5 | 21.8 | 8 | 7.94 | > 50 | – | 92.3 | 10.7
7 | COC(=O)Oc1ccc2oc(=O)c(-c3ccc4c(c3)OCO4)cc2c1 | 68 | 13.7 | 5.4 | 5.37 | > 50 | – | 95.5 | 11.4
8 | COC(=O)Oc1cc2cc(-c3ccc4c(c3)OCO4)c(=O)oc2cc1OC(=O)OC | 99 | 99.4 | 0.7 | 0.692 | 0.7 | 0.661 | 95 | 11.9
9 | O=c1oc2ccccc2cc1-c1ccc2c(c1)OCO2 | 5.7 | 10.1 | > 50 | – | > 50 | – | 96 | 11.9
10 | COC(=O)Oc1ccc2oc(=O)c(-c3ccccc3)cc2c1 | 80.5 | 50.5 | 7.4 | 7.41 | 31.2 | 30.9 | 93.8 | 11.3
11 | O=c1oc2ccc(O)cc2cc1-c1cccc(O)c1 | 94.1 | 31.7 | 5.2 | 5.25 | > 50 | – | 93.8 | 11.2
12 | COC(=O)Oc1ccc(-c2cc3cc(OC(=O)OC)c(OC(=O)OC)cc3oc2=O)cc1OC(=O)OC | 99.9 | 99.9 | 0.4 | 0.363 | 0.4 | 0.389 | 88.8 | 20.7
13 | O=c1oc2ccc(O)cc2cc1-c1ccc(O)cc1 | 95.7 | 69.8 | 4.3 | 4.37 | 29.6 | 29.5 | 89.5 | 18.3
14 | COC(=O)Oc1ccc2oc(=O)c(-c3ccc(OC(=O)OC)c(OC(=O)OC)c3)cc2c1 | 97.5 | 92.3 | 1.8 | 1.78 | 2 | 2.04 | 93.3 | 9.3
15 | COC(=O)Oc1ccc(-c2cc3cc(OC(=O)OC)ccc3oc2=O)cc1 | 92.5 | 60.3 | 4 | 3.98 | 27.4 | 27.5 | 92.5 | 11.6
16 | COC(=O)Oc1ccc2oc(=O)c(-c3ccccc3OC(=O)OC)cc2c1 | 96.5 | 94.6 | 2.6 | 2.57 | 2.9 | 2.88 | 90.3 | 14.6
17 | COC(=O)Oc1ccc2cc(-c3ccc4c(c3)OCO4)c(=O)oc2c1 | 67.1 | 7.9 | 7.3 | ≥ 7.24 | > 50 | – | 94.3 | 13.8
18 | O=c1oc2cc(O)ccc2cc1-c1ccc2c(c1)OCO2 | 79.4 | 17.5 | 8.6 | 8.51 | > 50 | – | 94.3 | 11.1
19 | O=c1oc2ccc(O)cc2cc1-c1ccc2c(c1)OCO2 | 83.5 | 23.2 | 5.6 | 5.62 | > 50 | – | 93.8 | 9
20 | O=c1oc2ccccc2cc1-c1ccccc1 | 27.9 | 9 | > 50 | – | > 50 | – | 90.3 | 17.1
21 | O=c1c(O)c(-c2ccc(O)c(O)c2)oc2cc(O)cc(O)c12 [QUERCETIN] | 99.9 | 99.9 | 4.7 | – | 2.4 | – | 93 | 10.9
